# From a flash point compilation (Sun et al. 2020)
row,Structure (SMILES),flash point [°C]
1,CC(=O)O[Si](C)(C)OC(C)=O [Dimethyldiacetoxysilane],37.00
2,Clc1ccc([Si](Cl)(Cl)Cl)cc1 [Trichloro(p-chlorophenyl)silane],123.90
3,CCCCC=C[Si](Cl)(Cl)Cl [1-Hexenyltrichlorosilane],60.00
4,CCCCCC[Si](C)(Cl)Cl [n-Hexylmethyldichlorosilane],85.00
5,ClCCC[Si](Cl)(Cl)Cl [3-Chloropropyltrichlorosilane],84.00
6,CCN(CC)[Si](C)(C)C [(Diethylamino)trimethylsilane],10.00
7,CCCCCCCCCCCCCCCCCC[Si](Cl)(Cl)Cl [n-Octadecyltrichlorosilane],193.00
8,C[Si]1(C)N[Si](C)(C)N[Si](C)(C)N[Si](C)(C)N1 [Octamethylcyclotetrasilazane],66.00
9,CO[Si](CCCOCC1CO1)(OC)OC (stereo not given) [3-Glycidoxypropyltrimethoxysilane],110.00
10,CC[SiH](CC)CC [Triethylsilane],-3.00
11,CC(CCl)C[Si](C)(Cl)Cl (stereo not given) [3-Chloro-2-methylpropylmethyldichlorosilane],90.00
12,CCO[SiH2]CCCN [Gamma-aminopropylethoxysilane],96.11
13,"C[Si](C)(Cl)O[Si](C)(C)Cl [1,3-Dichlorotetramethyldisiloxane]",15.00
14,CCC[Si](Cl)(Cl)Cl [n-Propyltrichlorosilane],37.00
15,[SiH3][SiH2][SiH3] [Trisilane],0.00
16,C[Si](C)(C)[SiH]([Si](C)(C)C)[Si](C)(C)C [Tris(trimethylsilyl)silane],55.00
17,CCCCCCCC[Si](OCC)(OCC)OCC [Octyltriethoxysilane],100.00
18,C[Si](C)(C)CBr [Bromomethyltrimethylsilane],16.00
19,CCCCCCCCCCCC[Si](C)(Cl)Cl [n-Dodecylmethyldichlorosilane],143.00
20,CC(C)N(C(C)C)[Si](C)(C)C [(Diisopropylamino)trimethylsilane],28.00
21,C[SiH](C)O[Si](O[SiH](C)C)(O[SiH](C)C)O[SiH](C)C [Tetrakisdimethylsiloxysilane],67.00
22,C[Si](C)(C)O[Si](C)(C)C [Hexamethyldisiloxane],-3.00

row,Structure (SMILES),flash point [°C]
1,CCCCCC[Si](Cl)(Cl)Cl [n-Hexyltrichlorosilane],85.00
2,C[Si]1(C)O[Si](C)(C)O[Si](C)(C)O[Si](C)(C)O1 [Octamethylcyclotetrasiloxane],57.00
3,C[Si]1(C)O[Si](C)(C)O[Si](C)(C)O[Si](C)(C)O[Si](C)(C)O[Si](C)(C)O1 [Dodecamethylcyclohexasiloxane],93.00
4,CO[Si](OC)(OC)c1ccccc1 [Phenyltrimethoxysilane],85.00
5,C=CC[Si](C)(C)Cl [Allyl Dimethylchlorosilane],5.00
6,C[Si](C)(Cl)CCl [Chloromethyldimethylchlorosilane],22.00
7,C=CC[Si](C)(C)C [Allyltrimethylsilane],7.00
8,"CO[Si](CCC1CCC2OC2C1)(OC)OC (stereo not given) [2-(3,4-epoxycyclohexyl)ethyltrimethoxysilane]",146.00
9,CO[Si](C)(CCCCl)OC [3-Chloropropylmethyldimethoxysilane],45.00
10,CC(=O)OC[Si](C)(C)C [Acetoxymethyltrimethylsilane],20.00
11,C[Si](C)(C)O[Si](C)(C)O[Si](C)(C)O[Si](C)(C)C [Decamethyltetrasiloxane],62.00
12,CO[Si](C)(C)C [Methoxytrimethylsilane],-30.00
13,C=C[Si](OC)(OC)OC [Vinyltrimethoxysilane],23.00
14,Cl[SiH2]Cl [Dichlorosilane],-37.00
15,CC[Si](Cl)(Cl)CC [Dichlorodiethylsilane],24.00
16,C=CC[Si](Cl)(Cl)Cl [Allyltrichlorosilane],31.00
17,CCCCCCCC[SiH3] [n-Octylsilane],36.00
18,CC[SiH3] [Ethylsilane],-60.00
19,CC[Si](CC)(CC)O[Si](CC)(CC)CC [Hexaethyldisiloxane],76.00
20,C[Si](C)(C)S[Si](C)(C)C [Hexamethyldisilthiane],26.00
21,C=C[Si](C=C)(C=C)C=C [Tetravinylsilane],18.00
22,CCCCCCC[Si](Cl)(Cl)Cl [n-Heptyltrichlorosilane],64.00

row,Structure (SMILES),flash point [°C]
1,CC[Si](OC)(OC)OC [Ethyltrimethoxysilane],27.00
2,C[Si](C)(C)O[Si](C)(C)O[Si](C)(C)O[Si](C)(C)O[Si](C)(C)O[Si](C)(C)O[Si](C)(C)O[Si](C)(C)C [Octadecamethyloctasiloxane],144.00
3,CCC[Si](Cl)(CCC)CCC [Tri-n-propylchlorosilane],76.00
4,"CN(C)[SiH](C)C [(N,N-Dimethylamino)dimethylsilane]",-13.00
5,C[Si](C)(C)I [Iodotrimethylsilane],15.00
6,C[Si](C)(C)Cl [Trimethylchlorosilane],-18.00
7,CCCC[Si](C)(Cl)Cl [n-Butylmethyldichlorosilane],30.00
8,N#CCCC[Si](Cl)(Cl)Cl [Trichloro(3-cyanopropyl) Silane],92.00
9,CC[Si](Cl)(CC)CC [Triethylchlorosilane],30.00
10,CCO[Si](CC)(CC)OCC [Diethyldiethoxysilane],43.00
11,C[Si](C)(C)O[Si](C)(C)O[Si](C)(C)O[Si](C)(C)O[Si](C)(C)O[Si](C)(C)O[Si](C)(C)C [Hexadecamethylheptasiloxane],133.00
12,CC[Si](C)(Cl)CC [Diethylmethylchlorosilane],15.00
13,C=CC[Si](OC)(OC)OC [Allyltrimethoxysilane],46.00
14,CCO[Si](OCC)(OCC)OCC [Tetraethoxysilane],50.00
15,"C=C[Si](C)(C)N[Si](C)(C)C=C [1,3-Divinyltetramethyldisilazane]",34.00
16,C[Si](C)(C)C[Si](C)(C)C [Bis(trimethylsilyl)methane],12.00
17,C=C[Si](Cl)(Cl)Cl [Vinyltrichlorosilane],21.00
18,C=CO[Si](C)(C)C [Trimethyl(vinyloxy)silane],-10.00
19,C[Si](C)(C)OC1=CCCC1 [(Cyclopentenyloxy)trimethylsilane],38.00
20,COCC(C)O[Si](C)(C)C (stereo not given) [(1-Methoxy-2-propoxy)trimethylsilane],20.00
21,CC#C[Si](C)(C)C [1-Trimethylsilylpropyne],-3.00
